Laboratory results: ChEMBL document CHEMBL1201862, “PubChem BioAssay data set” (2004)
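Each compound was tested at five concentrations against cells in 96-well plates for 48 hours. The concentration for 50% growth inhibition is given as GI50.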 The source made the active and inactive calls. Cut-off read from the data, not from the text of the source: active = GI50 up to about 1.1 µM and inactive = higher.

Tests used:
Assay in all cases: DTP human tumour cell line panel, 48 h
NCI-H226 = system: NCI-H226
MDA-MB-435 = system: MDA-MB-435
LOX IMVI = system: LOX IMVI
SR = system: SR
CCRF-CEM = system: CCRF-CEM
COLO 205 = system: COLO 205
DU-145 = system: DU-145
KM12 = system: KM12
A549 = system: A549
HCT-116 = system: HCT-116
RPMI-8226 = system: RPMI-8226
SW-620 = system: SW-620
ACHN = system: ACHN
SK-OV-3 = system: SK-OV-3
NCI-H460 = system: NCI-H460
M14 = system: M14
SK-MEL-28 = system: SK-MEL-28
HCC 2998 = system: HCC 2998
SF-268 = system: SF-268

Measured: GI50

C[C@]12CC[C@H]3[C@@H](CC=C4C[C@@H](O)CC[C@@]43C)[C@@H]1C/C(=C\c1cccnc1)[C@@H]2O
inactive: NCI-H226 5.25 µM | MDA-MB-435 > 100 µM | LOX IMVI 1.28 µM | SR 1.57 µM | CCRF-CEM 23.6 µM | COLO 205 > 100 µM | DU-145 13.5 µM | KM12 > 100 µM | A549 7.83 µM | HCT-116 25 µM | RPMI-8226 > 100 µM | SW-620 89.9 µM | ACHN 5.82 µM | SK-OV-3 10.8 µM | NCI-H460 31.6 µM | M14 > 100 µM | SK-MEL-28 32.1 µM

CCc1n[nH]c(=O)n1/N=C/c1ccccc1O
inactive: MDA-MB-435 > 100 µM | LOX IMVI > 100 µM | HCC 2998 > 100 µM | SR > 100 µM | CCRF-CEM > 100 µM | COLO 205 > 100 µM | DU-145 > 100 µM | KM12 > 100 µM | A549 > 100 µM | HCT-116 > 100 µM | RPMI-8226 > 100 µM | SW-620 > 100 µM | ACHN > 100 µM | SK-OV-3 > 100 µM | SF-268 > 100 µM | M14 > 100 µM | SK-MEL-28 > 100 µM

C[C@H](CCCOS(C)(=O)=O)[C@H]1CC[C@H]2[C@@H]3CC[C@@H]4C[C@H](OS(C)(=O)=O)CC[C@]4(C)[C@H]3CC[C@]12C
inactive: NCI-H226 17.5 µM | MDA-MB-435 20.5 µM | LOX IMVI 31.7 µM | SR 19.2 µM | CCRF-CEM > 100 µM | COLO 205 > 100 µM | DU-145 27 µM | KM12 29.2 µM | A549 17 µM | HCT-116 29.5 µM | RPMI-8226 17.1 µM | SW-620 56 µM | ACHN 15.6 µM | SK-OV-3 20.3 µM | NCI-H460 30.5 µM | SF-268 27 µM | M14 90.4 µM | SK-MEL-28 > 100 µM

c1ccc2c(c1)Sc1ccccc1N2CCCN1c2ccccc2Sc2ccccc21
inactive: NCI-H226 > 100 µM | MDA-MB-435 58.9 µM | LOX IMVI > 100 µM | HCC 2998 > 100 µM | SR > 100 µM | COLO 205 52.6 µM | DU-145 > 100 µM | KM12 > 100 µM | A549 > 100 µM | HCT-116 55.5 µM | SW-620 > 100 µM | ACHN 39.1 µM | SK-OV-3 > 100 µM | NCI-H460 39.9 µM | SF-268 > 100 µM | M14 50.6 µM | SK-MEL-28 > 100 µM

Cc1nc2ccccc2c(=O)n1NC(=O)c1ccccn1
inactive: MDA-MB-435 > 100 µM | LOX IMVI > 100 µM | HCC 2998 > 100 µM | SR > 100 µM | CCRF-CEM > 100 µM | COLO 205 > 100 µM | DU-145 > 100 µM | KM12 > 100 µM | A549 > 100 µM | HCT-116 > 100 µM | RPMI-8226 > 100 µM | SW-620 > 100 µM | ACHN > 100 µM | SK-OV-3 > 100 µM | NCI-H460 > 100 µM | SF-268 > 100 µM | M14 > 100 µM | SK-MEL-28 > 100 µM

CN1CN(c2ccccc2)C2(CCN(C3Nc4ccccc4O3)CC2)C1=O (stereo unspecified)
inactive: NCI-H226 18.6 µM | MDA-MB-435 19 µM | LOX IMVI 13.6 µM | SR 36.9 µM | CCRF-CEM 13.2 µM | COLO 205 16.3 µM | DU-145 22.7 µM | KM12 19.6 µM | A549 27.3 µM | HCT-116 16.2 µM | RPMI-8226 11.7 µM | SW-620 33.7 µM | ACHN 22 µM | SK-OV-3 19.6 µM | NCI-H460 17.7 µM | SF-268 23.3 µM | M14 18.5 µM | SK-MEL-28 23.5 µM

Cc1ccc(/N=N/c2c(O)ccc3ccccc23)cc1
inactive: NCI-H226 > 100 µM | MDA-MB-435 > 100 µM | LOX IMVI > 100 µM | SR 11.7 µM | CCRF-CEM 27.1 µM | COLO 205 > 100 µM | DU-145 > 100 µM | KM12 98.6 µM | A549 > 100 µM | HCT-116 > 100 µM | RPMI-8226 99.3 µM | SW-620 63.4 µM | ACHN > 100 µM | SK-OV-3 > 100 µM | SF-268 > 100 µM | M14 > 100 µM | SK-MEL-28 > 100 µM

CSc1ncc2c(n1)-c1ccccc1OC2N1CCCCC1 (stereo unspecified)
inactive: NCI-H226 32 µM | MDA-MB-435 31.1 µM | LOX IMVI 21.1 µM | SR 18 µM | CCRF-CEM 20.6 µM | COLO 205 44.8 µM | DU-145 34.4 µM | KM12 38.5 µM | A549 39.4 µM | HCT-116 31 µM | RPMI-8226 24.4 µM | SW-620 40.5 µM | ACHN 37.1 µM | SK-OV-3 > 100 µM | NCI-H460 30.4 µM | SF-268 45 µM | M14 49.3 µM

CCS(=O)(=O)CCn1c(=O)c2c(ncn2C)n(C)c1=O
inactive: MDA-MB-435 > 100 µM | LOX IMVI > 100 µM | HCC 2998 > 100 µM | SR > 100 µM | CCRF-CEM > 100 µM | COLO 205 > 100 µM | DU-145 > 100 µM | KM12 > 100 µM | A549 > 100 µM | HCT-116 > 100 µM | RPMI-8226 > 100 µM | SW-620 > 100 µM | ACHN > 100 µM | NCI-H460 > 100 µM | SF-268 > 100 µM | M14 > 100 µM | SK-MEL-28 > 100 µM

COc1cc(C2C(Cl)C(=O)N2c2c(C)n(C)n(-c3ccccc3)c2=O)ccc1O (stereo unspecified)
inactive: NCI-H226 22.3 µM | MDA-MB-435 16.4 µM | LOX IMVI 16.5 µM | SR 12 µM | CCRF-CEM 22.7 µM | COLO 205 16.3 µM | DU-145 29.7 µM | KM12 17.7 µM | A549 26.2 µM | HCT-116 6.37 µM | RPMI-8226 18.1 µM | SW-620 15 µM | ACHN 20.1 µM | SK-OV-3 29.6 µM | NCI-H460 23.6 µM | SF-268 24.9 µM | M14 15.7 µM

O=C1C(O)=C(C(CCc2ccccc2)C2=C(O)C(=O)c3ccccc3C2=O)C(=O)c2ccccc21
inactive: NCI-H226 > 100 µM | MDA-MB-435 13.9 µM | LOX IMVI 5.26 µM | SR 16.9 µM | CCRF-CEM 37.9 µM | COLO 205 28.4 µM | DU-145 8.55 µM | KM12 > 100 µM | A549 33 µM | HCT-116 40 µM | RPMI-8226 16.1 µM | SW-620 47.5 µM | ACHN 65.9 µM | SK-OV-3 > 100 µM | NCI-H460 3.61 µM | SF-268 92.9 µM | M14 11.5 µM | SK-MEL-28 > 100 µM
